# Where two headings read alike, the source gives them in different places.
# Legend:
# SAP [1] = target: T1, SAP (Homo sapiens, UniProt P02743); details: systemic amyloidosis patients, for as long as the drug was administered; cited from earlier work
# T1 construct: Depletion of plasma SAP by CPHPC, from the normal 20-50 mg/L to <0.1 mg/L; host or cells: circulating SAP in plasma and CSF of patients
# [2] = very low and variable; cited from earlier work
# SAP [3] = target: T1, SAP; details: patients with Alzheimer's disease, cited from earlier work
# CYP1A2 = target: T2, CYP1A2 (Homo sapiens, UniProt P05177); assay: Cytochrome p450 inhibition assay (bactosomes, fluorogenic substrate ER); format: biochemical; details: recombinant human CYP (Cypex bactosomes)
# T2 construct: purchased Cypex; host or cells: bactosomes (bacterial membranes)
# T2 sequence (P05177 1-516): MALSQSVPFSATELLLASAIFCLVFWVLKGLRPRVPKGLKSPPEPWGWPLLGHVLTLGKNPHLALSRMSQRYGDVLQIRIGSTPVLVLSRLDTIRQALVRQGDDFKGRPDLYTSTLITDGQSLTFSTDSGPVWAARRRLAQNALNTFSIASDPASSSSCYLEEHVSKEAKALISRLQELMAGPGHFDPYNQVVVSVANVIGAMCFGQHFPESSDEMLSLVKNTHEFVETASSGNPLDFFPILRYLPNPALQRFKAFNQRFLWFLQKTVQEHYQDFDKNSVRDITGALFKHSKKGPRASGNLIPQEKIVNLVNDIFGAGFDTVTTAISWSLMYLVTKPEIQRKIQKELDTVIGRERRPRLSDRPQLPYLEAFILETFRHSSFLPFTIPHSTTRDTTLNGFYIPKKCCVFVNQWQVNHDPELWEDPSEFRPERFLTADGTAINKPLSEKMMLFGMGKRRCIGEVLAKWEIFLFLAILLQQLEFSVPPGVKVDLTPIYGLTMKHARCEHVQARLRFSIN
# Experimental: (§1) The assay was designed to evaluate inhibition on cytochrome P450 (CYP) 3A4, 2C9, 2C19, 1A2 and 2D6 enzymes from bactosomes source using fluorogenic substrates. Compound (compound of Formula (I) or Comparator Compound) was dissolved in methanol at 1.65 mM. Daughter solutions were prepared in methanol at 660, 264, 106, 42, 17, 6.8, 2.7, 1.1 and 0.43 μM. NADPH cofactor was prepared with Glucose-6-phosphate (7.8 mg), Glucose-6-phosphate dehydrogenase (6 units), NADP (1.7 mg) per 1 mL in NaHCO3 2%. Substrate preparation was as follows: • 7-Methoxy-4-triFluoromethyl Coumarin-3-Acetic acid ethyl ester (FCA): 12.5 mM in acetonitrile • EthoxyResorufin (ER): 0.05 mM in acetonitrile • 4-MethylaminoMethyl-7-Methoxy Coumarin (MMC): 2.5 mM in methanol • 3-Butyryl-7Methoxy Coumarin (BMC): 2.5 mM in DMSO • 7-BenzyloxyQuinoline (7BQ): 2.5 mM in acetonitrile • DiEthoxyFluorescein (DEF): 0.1 mM in acetonitrile Bactosomes (Cypex source) at the concentration of 10 mg of protein per ml were diluted in phosphate buffer 50 mM pH7.4: • 0.33 ml of bactosomes CYP2C9 with 23.8 ml of buffer and 0.11 ml of FCA • 0.33 ml of bactosomes CYP1A2 with 23.6 ml of buffer and 0.275 ml of ER • 0.33 ml of bactosomes CYP2D6 with 23.8 ml of buffer and 0.11 ml of MMC • 0.33 ml of bactosomes CYP2C19 with 23.8 ml of buffer and 0.11 ml of BMC • 0.33 ml of bactosomes CYP3[…] with 23.6 ml of buffer and 0.275 ml of 7BQ • 0.33 ml of bactosomes CYP3[…] with 23.6 ml of buffer and 0.275 ml of DEF Pre-Incubation consisted in mixing 5 μl of compound solution with 220 μl diluted bactosomes and warming it at 37° C. for 10 min. Incubation was started with the addition of 25 μl of NADPH. […]
# CYP3A4 = target: T3, CYP3A4 (Homo sapiens, UniProt P08684); assay: Cytochrome p450 inhibition assay (bactosomes, fluorogenic substrates 7BQ and DEF); format: biochemical; details: recombinant human CYP (Cypex bactosomes)
# T3 construct: purchased Cypex; host or cells: bactosomes (bacterial membranes)
# T3 sequence (P08684 whole entry): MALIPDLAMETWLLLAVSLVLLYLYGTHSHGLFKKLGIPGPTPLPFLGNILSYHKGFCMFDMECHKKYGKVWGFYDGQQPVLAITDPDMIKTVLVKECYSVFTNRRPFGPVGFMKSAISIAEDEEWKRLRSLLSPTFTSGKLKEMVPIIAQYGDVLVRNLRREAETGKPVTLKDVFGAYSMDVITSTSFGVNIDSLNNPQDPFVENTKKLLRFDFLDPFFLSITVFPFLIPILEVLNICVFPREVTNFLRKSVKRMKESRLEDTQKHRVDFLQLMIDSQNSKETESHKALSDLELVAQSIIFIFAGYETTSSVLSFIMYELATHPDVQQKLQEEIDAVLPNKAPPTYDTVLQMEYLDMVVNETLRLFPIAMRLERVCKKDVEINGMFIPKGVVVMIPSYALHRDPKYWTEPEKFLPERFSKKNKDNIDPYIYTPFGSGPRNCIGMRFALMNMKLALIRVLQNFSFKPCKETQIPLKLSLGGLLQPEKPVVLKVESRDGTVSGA
# Experimental: The assay was designed to evaluate inhibition on cytochrome P450 (CYP) 3A4, 2C9, 2C19, 1A2 and 2D6 enzymes from bactosomes source using fluorogenic substrates. Compound (compound of Formula (I) or Comparator Compound) was dissolved in methanol at 1.65 mM. Daughter solutions were prepared in methanol at 660, 264, 106, 42, 17, 6.8, 2.7, 1.1 and 0.43 μM. NADPH cofactor was prepared with Glucose-6-phosphate (7.8 mg), Glucose-6-phosphate dehydrogenase (6 units), NADP (1.7 mg) per 1 mL in NaHCO3 2%. Substrate preparation was as follows: • 7-Methoxy-4-triFluoromethyl Coumarin-3-Acetic acid ethyl ester (FCA): 12.5 mM in acetonitrile • EthoxyResorufin (ER): 0.05 mM in acetonitrile • 4-MethylaminoMethyl-7-Methoxy Coumarin (MMC): 2.5 mM in methanol • 3-Butyryl-7Methoxy Coumarin (BMC): 2.5 mM in DMSO • 7-BenzyloxyQuinoline (7BQ): 2.5 mM in acetonitrile • DiEthoxyFluorescein (DEF): 0.1 mM in acetonitrile Bactosomes (Cypex source) at the concentration of 10 mg of protein per ml were diluted in phosphate buffer 50 mM pH7.4: • 0.33 ml of bactosomes CYP2C9 with 23.8 ml of buffer and 0.11 ml of FCA • 0.33 ml of bactosomes CYP1A2 with 23.6 ml of buffer and 0.275 ml of ER • 0.33 ml of bactosomes CYP2D6 with 23.8 ml of buffer and 0.11 ml of MMC • 0.33 ml of bactosomes CYP2C19 with 23.8 ml of buffer and 0.11 ml of BMC • 0.33 ml of bactosomes CYP3[…] with 23.6 ml of buffer and 0.275 ml of 7BQ • 0.33 ml of bactosomes CYP3[…] with 23.6 ml of buffer and 0.275 ml of DEF Pre-Incubation consisted in mixing 5 μl of compound solution with 220 μl diluted bactosomes and warming it at 37° C. for 10 min. Incubation was started with the addition of 25 μl of NADPH. Then fluorescence of substrate metabolite was read in a SAFIRE instrument (from Tecan) for 5 min: • FCA (2C9): Excitation at 410 nm and Emission at 510 nm • ER (1A2): Excitation at 530 nm and Emission at 590 nm • MMC (2D6): Excitation at 410 nm and Emission at 485 nm • BMC (2C19): Excitation at 410 nm and Emission at 465 nm • 7BQ (3A4H): Excitation at 410 nm and Emission at 530 nm • DEF (3A4L): Excitation at 485 nm and Emission at 530 nm Plotting of inhibition of substrate production against compound concentration allowed the determination of IC50 values.
# CYP2D6 = target: T4, CYP2D6 (Homo sapiens, UniProt P10635); assay: Cytochrome p450 inhibition assay (bactosomes, fluorogenic substrate MMC); format: biochemical; details: recombinant human CYP (Cypex bactosomes)
# T4 construct: purchased Cypex; host or cells: bactosomes (bacterial membranes)
# T4 sequence (P10635 whole entry): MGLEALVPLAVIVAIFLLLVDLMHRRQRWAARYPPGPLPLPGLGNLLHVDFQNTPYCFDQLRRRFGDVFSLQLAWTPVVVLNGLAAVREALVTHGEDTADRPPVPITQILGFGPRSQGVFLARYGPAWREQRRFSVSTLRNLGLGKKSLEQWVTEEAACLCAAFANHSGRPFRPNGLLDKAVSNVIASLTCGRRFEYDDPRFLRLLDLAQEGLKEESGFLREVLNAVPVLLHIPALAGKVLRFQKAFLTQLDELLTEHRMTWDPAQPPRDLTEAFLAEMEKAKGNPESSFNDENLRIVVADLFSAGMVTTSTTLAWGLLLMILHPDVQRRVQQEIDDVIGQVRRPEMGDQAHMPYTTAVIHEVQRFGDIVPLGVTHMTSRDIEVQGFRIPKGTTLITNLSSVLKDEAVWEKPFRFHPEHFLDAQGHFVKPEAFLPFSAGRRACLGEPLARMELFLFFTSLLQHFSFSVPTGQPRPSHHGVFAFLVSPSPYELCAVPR
# Experimental: as §1
# CYP2C9 = target: T5, CYP2C9 (Homo sapiens, UniProt P11712); assay: Cytochrome p450 inhibition assay (bactosomes, fluorogenic substrate FCA); format: biochemical; details: recombinant human CYP (Cypex bactosomes)
# T5 construct: purchased Cypex; host or cells: bactosomes (bacterial membranes)
# T5 sequence (P11712 whole entry): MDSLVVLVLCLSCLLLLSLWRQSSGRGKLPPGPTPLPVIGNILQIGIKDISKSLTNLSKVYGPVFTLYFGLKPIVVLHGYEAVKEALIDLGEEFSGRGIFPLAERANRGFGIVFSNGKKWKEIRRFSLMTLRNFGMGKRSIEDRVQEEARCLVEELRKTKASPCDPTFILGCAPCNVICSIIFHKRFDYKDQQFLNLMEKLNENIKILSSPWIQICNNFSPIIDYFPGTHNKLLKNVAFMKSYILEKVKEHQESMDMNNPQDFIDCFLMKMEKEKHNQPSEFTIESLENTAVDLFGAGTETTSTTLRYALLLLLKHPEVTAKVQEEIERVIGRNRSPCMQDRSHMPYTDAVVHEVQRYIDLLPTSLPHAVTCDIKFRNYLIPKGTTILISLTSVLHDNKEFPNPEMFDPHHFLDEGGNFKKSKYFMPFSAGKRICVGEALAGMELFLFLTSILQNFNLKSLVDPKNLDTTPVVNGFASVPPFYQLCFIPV
# Experimental: as §1
# CYP2C19 = target: T6, CYP2C19 (Homo sapiens, UniProt P33261); assay: Cytochrome p450 inhibition assay (bactosomes, fluorogenic substrate BMC); format: biochemical; details: recombinant human CYP (Cypex bactosomes)
# T6 construct: purchased Cypex; host or cells: bactosomes (bacterial membranes)
# T6 sequence (P33261 whole entry): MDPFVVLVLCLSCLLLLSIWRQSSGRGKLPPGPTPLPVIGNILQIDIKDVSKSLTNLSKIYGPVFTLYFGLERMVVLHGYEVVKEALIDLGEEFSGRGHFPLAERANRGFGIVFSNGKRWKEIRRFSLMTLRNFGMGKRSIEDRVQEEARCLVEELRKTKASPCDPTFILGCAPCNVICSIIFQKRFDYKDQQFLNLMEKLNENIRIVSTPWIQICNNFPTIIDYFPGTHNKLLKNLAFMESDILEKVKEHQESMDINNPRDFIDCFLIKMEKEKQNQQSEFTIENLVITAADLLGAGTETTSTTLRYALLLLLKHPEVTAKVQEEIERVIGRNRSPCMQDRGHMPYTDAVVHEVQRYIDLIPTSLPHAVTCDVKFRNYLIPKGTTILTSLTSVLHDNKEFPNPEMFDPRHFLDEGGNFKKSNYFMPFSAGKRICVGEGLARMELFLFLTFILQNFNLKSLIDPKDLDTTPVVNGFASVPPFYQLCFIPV
# Experimental: as §1
# T1 sequence (P02743 20-223): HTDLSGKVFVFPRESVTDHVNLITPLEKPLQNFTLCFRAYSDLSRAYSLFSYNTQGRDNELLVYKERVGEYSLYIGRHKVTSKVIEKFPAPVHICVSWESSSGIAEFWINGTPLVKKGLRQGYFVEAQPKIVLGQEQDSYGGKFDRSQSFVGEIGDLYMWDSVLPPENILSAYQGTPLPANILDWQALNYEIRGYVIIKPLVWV
Structure (SMILES),Depletion of circulating SAP (SAP [1]),Oral bioavailability [2],CSF SAP concentration after depletion (SAP [3]; from 2-30 μg/L) [µg/L],Plasma SAP after depletion (SAP [3]; from the normal 20-50 mg/L) [mg/L],IC50 (CYP1A2) [µM],IC50 CYP3A4 (7BQ) (CYP3A4; substrate 7BQ),"IC50 (CYP3A4; substrate 7BQ, read-out: IC50 CYP3A4 (7BQ)) [µM]",IC50 CYP3A4 (DEF) (CYP3A4; substrate DEF),"IC50 (CYP3A4; substrate DEF, read-out: IC50 CYP3A4 (DEF)) [µM]",IC50 (CYP2D6) [µM],IC50 (CYP2C9) [µM],IC50 (CYP2C19) [µM]
"O=C(O)[C@H]1CCCN1C(=O)CCCCC(=O)N1CCC[C@@H]1C(=O)O [CPHPC, (R)-1-[6-[(R)-2-carboxy-pyrrolidin-1-yl]-6-oxo-hexanoyl]pyrrolidine-2-carboxylic acid]",almost complete depletion,3-5%,< 0.1,< 0.1,,,,,,,,
"CC(OC(=O)[C@H]1CCCN1C(=O)CCCCC(=O)N1CCC[C@@H]1C(=O)OC(C)OC(=O)C(C)(C)C)OC(=O)C(C)(C)C (stereo partly drawn) [Comparator Compound, (2R,2′R)-bis(1-(pivaloyloxy)ethyl) 1,1′-adipoylbis(pyrrolidine-2-carboxylate), reference compound]",,,,,> 33,significant inhibition,5.5,significant inhibition,1.1,> 33,26,> 33

# — patent US9737505B2, “Prodrug of 1,1′-(1,6-dioxo-1,6-hexanediyl)bis-D-proline” (GlaxoSmithKline Intellectual Property Development Limited, priority 2014, dated 2017)
